# Like-named read-outs stand apart in the source and are kept apart here.
# Key:
# Assay type in all cases: in vivo
# [1] = test system: Amaranthus retroflexus (AMARE); test: Post-emergence herbicidal action against AMARE
# Summary of the method: (§1)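 Values are percent visual activity (0% like control, 100% plants dead) after about 3 weeks in the greenhouse. Treatment: post-emergence spray at one-leaf stage, 600 l/ha spray volume, 0.5% additive, doses 320 g/ha or lower.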
# [2] = test system: Abutilon theophrasti (ABUTH); test: Post-emergence herbicidal action against ABUTH; conditions: visual rating about 3 weeks after treatment vs untreated controls (100% = plants have died, 0% = like control plants)
# Summary of the method: as §1
# [3] = test system: Avena fatua (AVEFA); test: Post-emergence herbicidal action against AVEFA; conditions: visual rating about 3 weeks after treatment
# Summary of the method: as §1
# [4] = test system: Pharbitis purpurea (PHBPU); test: Post-emergence herbicidal action against PHBPU
# Summary of the method: as §1
# [5] = test system: Avena fatua (AVEFA); test: Pre-emergence herbicidal action against AVEFA; conditions: visual scoring after about 3 weeks vs untreated controls
# Summary of the method: (§2)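 Pre-emergence soil-surface spray of compound, formulated as wettable powder or emulsion concentrate, in aqueous suspension or emulsion with 0.5% additive (600 l/ha; rate 320 g/ha or less). Activity rated visually after roughly 3 weeks in the greenhouse as a percentage of untreated controls, 0% meaning no difference.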
# [6] = test system: Abutilon theophrasti (ABUTH); test: Pre-emergence herbicidal action against ABUTH; conditions: 100% = plants have died
# Excerpt: Seeds of monocotyledonous and dicotyledonous weed plants and crop plants are placed in plastic or organic planting pots and covered with soil. The compounds of the invention, formulated in the form of wettable powders (WP) or as emulsion concentrates (EC), are then applied to the surface of the covering soil as aqueous suspension or emulsion with addition of 0.5% additive at a water application rate equivalent to 600 l/ha. After the treatment, the pots are placed in a greenhouse and kept under good growth conditions for the trial plants. After about 3 weeks, the effect of the preparations is scored visually in comparison with untreated controls as percentages. For example, 100% activity=the plants have died, 0% activity=like control plants.
# Tables A1 to A13 below show the effects of selected compounds of the general formula (I) on various harmful plants and at an application rate corresponding to 320 g/ha or lower, which were obtained by the experimental procedure mentioned above. The appendices “a”, “b” and “c” give differentiation by dosage used with otherwise the same harmful plants tested.
# [7] = test system: Matricaria inodora (MATIN); test: Pre-emergence herbicidal action against MATIN
# Summary of the method: as §2
# [8] = test system: Viola tricolor (VIOTR); test: Pre-emergence herbicidal action against VIOTR
# Summary of the method: as §2
# [9] = test system: Verconica persica (VERPE); test: Pre-emergence herbicidal action against VERPE
# Summary of the method: as §2
# [10] = test system: Echinochloa crus-galli (ECHCG); test: Post-emergence herbicidal action against ECHCG
# Summary of the method: as §1
# [11] = test system: Echinochloa crus-galli (ECHCG); test: Pre-emergence herbicidal action against ECHCG
# Summary of the method: as §2
# [12] = test system: Alopecurus myosuroides (ALOMY); test: Post-emergence herbicidal action against ALOMY; conditions: visual rating about 3 weeks after treatment vs untreated controls (100% = plants have died, 0% = like control plants)
# Summary of the method: as §1
# [13] = test system: Polygonum convolvulus (POLCO); test: Post-emergence herbicidal action against POLCO; conditions: dosage 80 g/ha
# Summary of the method: as §1
# [14] = test system: Polygonum convolvulus (POLCO); test: Pre-emergence herbicidal action against POLCO
# Summary of the method: as §2
# [15] = test system: Amaranthus retroflexus (AMARE); test: Pre-emergence herbicidal action against AMARE; conditions: visual scoring after about 3 weeks vs untreated controls
# Summary of the method: as §2
# [16] = test system: Oryza sativa (ORYSA); conditions: crop plant compatibility
# Summary of the method: (§3)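 Percent effect on the crop was judged by eye against untreated controls, where 0% means like control and 100% means dead plants. Plants had been sprayed post-emergence at the one-leaf stage and then kept under optimum greenhouse conditions for about 3 weeks.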
# [17] = test system: Setaria viridis (SETVI); test: Pre-emergence herbicidal action against SETVI
# Summary of the method: as §2
# [18] = test system: Lolium rigidum (LOLRI); test: Pre-emergence herbicidal action against LOLRI
# Summary of the method: as §2
# [19] = test system: Lolium rigidum (LOLRI); test: Post-emergence herbicidal action against LOLRI
# Summary of the method: as §1
# [20] = test system: Setaria viridis (SETVI); test: Post-emergence herbicidal action against SETVI
# Summary of the method: as §1
# [21] = test system: Alopecurus myosuroides (ALOMY); test: Pre-emergence herbicidal action against ALOMY; conditions: scored visually after about 3 weeks, 100% = plants have died
# Summary of the method: as §2
# [22] = test system: Verconica persica (VERPE); test: Post-emergence herbicidal action against VERPE
# Summary of the method: as §1
# [23] = test system: Pharbitis purpurea (PHBPU); test: Pre-emergence herbicidal action against PHBPU
# Summary of the method: as §2
# [24] = test system: Viola tricolor (VIOTR); test: Post-emergence herbicidal action against VIOTR
# Summary of the method: as §1
# [25] = test system: Matricaria inodora (MATIN); test: Post-emergence herbicidal action against MATIN; conditions: dosage 320 g/ha
# Summary of the method: as §1
# [26] = test system: Zea mays (ZEAMX); conditions: crop plant compatibility, 80 g/ha, effect vs untreated controls
# Summary of the method: as §3
# [27] = 80 g/ha, visual rating about 3 weeks after treatment vs untreated controls (100% = plants have died, 0% = like control plants)
# [28] = Dosage column 320 g/ha (title prints 3200 g/ha), scored visually after about 3 weeks
# [29] = 80 g/ha, effect in comparison to untreated controls
# [30] = 320 g/ha, visual rating about 3 weeks after treatment
SMILES,"Post-emergence action against AMARE in % [1, 27]",Post-emergence action against ABUTH in % ([2]; 80 g/ha),Post-emergence action against AVEFA in % ([3]; 80 g/ha),Pre-emergence action against AVEFA in % ([5]; 320 g/ha),"Pre-emergence action against ABUTH [6, 28]",Pre-emergence action against MATIN in % ([7]; dosage 320 g/ha),"Pre-emergence action against VIOTR in % ([8]; 320 g/ha, Viola tricolor)",Pre-emergence action against VIOTR in % ([8]; dosage 80 g/ha),Pre-emergence action against VERPE in % ([9]; dosage 320 g/ha),Post-emergence action against ECHCG in % ([10]; dosage 80 g/ha),Pre-emergence action against ECHCG in % ([11]; dosage 80 g/ha),Pre-emergence action against ECHCG in % ([11]; dosage 320 g/ha),Post-emergence action against ALOMY in % ([12]; 80 g/ha),Pre-emergence action against POLCO in % ([14]; dosage 320 g/ha),Pre-emergence action against AMARE in % ([15]; 80 g/ha),Pre-emergence action against AMARE in % ([15]; 320 g/ha),"Post-emergence action against ORYSA in % [16, 29]",Pre-emergence action against SETVI in % ([17]; dosage 320 g/ha),Pre-emergence action against ALOMY ([21]; 320 g/ha),Pre-emergence action against PHBPU in % ([23]; dosage 320 g/ha),further results
O=C(O)COc1nn(-c2ccccn2)c(-c2cncc(F)c2)c1Br [Example I-84],90%,80%,80%,90%,80%,90%,100%,90%,100%,80%,80%,100%,80%,90%,80%,100%,10%,100%,100%,90%,"Post-emergence action against PHBPU in % ([4]; dosage 80 g/ha): 90%; Pre-emergence action against AVEFA in % ([5]; 80 g/ha): 80%; Pre-emergence action against MATIN in % ([7]; dosage 80 g/ha): 90%; Pre-emergence action against VERPE in % ([9]; dosage 80 g/ha): 90%; Post-emergence action against POLCO in % [13]: 90%; Post-emergence action against ORYSA in % ([16]; 20 g/ha, effect vs untreated controls): 0%; Pre-emergence action against LOLRI in % ([18]; dosage 80 g/ha): 90%; Pre-emergence action against LOLRI in % ([18]; dosage 320 g/ha): 100%; Post-emergence action against LOLRI in % ([19]; dosage 80 g/ha): 90%; Post-emergence action against SETVI in % ([20]; dosage 80 g/ha): 80%; Pre-emergence action against ALOMY ([21]; 80 g/ha): 80%; Post-emergence action against VERPE in % ([22]; dosage 80 g/ha): 80%; Pre-emergence action against PHBPU in % ([23]; dosage 80 g/ha): 90%"
Cc1cccnc1-n1nc(OCC(=O)O)c(Br)c1-c1cncc(F)c1 [Example I-204],80%,,,80%,80%,90%,100%,100%,100%,80%,90%,100%,90%,90%,90%,100%,0%,100%,100%,90%,"Post-emergence action against AMARE in % [1, 30]: 80%; Post-emergence action against AVEFA in % ([3]; 320 g/ha): 80%; Post-emergence action against PHBPU in % ([4]; dosage 320 g/ha): 80%; Post-emergence action against VIOTR in % ([24]; 80 g/ha): 80%; Post-emergence action against VIOTR in % ([24]; 320 g/ha): 80%; Post-emergence action against ECHCG in % ([10]; dosage 320 g/ha): 80%; Post-emergence action against ALOMY in % ([12]; 320 g/ha): 90%; Pre-emergence action against POLCO in % ([14]; dosage 80 g/ha): 90%; Pre-emergence action against SETVI in % ([17]; dosage 80 g/ha): 90%; Post-emergence action against MATIN in % [25]: 80%; Post-emergence action against SETVI in % ([20]; dosage 80 g/ha): 90%; Post-emergence action against SETVI in % ([20]; dosage 320 g/ha): 90%; Pre-emergence action against ALOMY ([21]; 80 g/ha): 90%; Post-emergence action against VERPE in % ([22]; 320 g/ha, VERPE): 90%; Post-emergence action against VERPE in % ([22]; dosage 80 g/ha): 90%; Pre-emergence action against PHBPU in % ([23]; dosage 80 g/ha): 90%"
COC(=O)[C@@H](C)Oc1nn(-c2nc(F)ccc2F)c(-c2ccc(F)nc2)c1Cl [Example I-332],80%,80%,80%,100%,80%,90%,100%,90%,90%,80%,80%,100%,80%,80%,80%,100%,20%,100%,100%,100%,"Post-emergence action against AMARE in % [1, 30]: 80%; Post-emergence action against ABUTH in % ([2]; 320 g/ha): 80%; Post-emergence action against AVEFA in % ([3]; 320 g/ha): 90%; Post-emergence action against PHBPU in % ([4]; dosage 80 g/ha): 80%; Post-emergence action against PHBPU in % ([4]; dosage 320 g/ha): 80%; Pre-emergence action against ABUTH ([6]; 80 g/ha, scored visually after about 3 weeks vs untreated controls, 0% = like control plants): 80%; Post-emergence action against VIOTR in % ([24]; 320 g/ha): 80%; Pre-emergence action against VERPE in % ([9]; dosage 80 g/ha): 80%; Post-emergence action against ECHCG in % ([10]; dosage 320 g/ha): 90%; Post-emergence action against ALOMY in % ([12]; 320 g/ha): 90%; Pre-emergence action against POLCO in % ([14]; dosage 80 g/ha): 80%; Post-emergence action against ZEAMX in % [26]: 10%; Pre-emergence action against LOLRI in % ([18]; dosage 80 g/ha): 90%; Pre-emergence action against LOLRI in % ([18]; dosage 320 g/ha): 100%; Post-emergence action against LOLRI in % ([19]; dosage 80 g/ha): 80%; Post-emergence action against LOLRI in % ([19]; dosage 320 g/ha): 90%; Post-emergence action against SETVI in % ([20]; dosage 320 g/ha): 80%; Post-emergence action against VERPE in % ([22]; 320 g/ha, VERPE): 80%"
